Experimental data as given in patent publication US12234232B2, “Aromatic heterocyclic compound with kinase inhibitory activity” (SHANGHAI ENNOVABIO PHARMACEUTICALS CO., LTD., priority 2018, dated 2025).

Experiments:
[1] = target: T1, JAK1 (Homo sapiens, UniProt P23458); experiment: Human whole blood JAK1 activity assay: IL-6-induced STAT1 phosphorylation (CD4+ T cells); assay type: cell-based; parameters: endogenous in cells; conditions: IL-6 (100 ng/mL), read-out: IC50_JAK1 (IL6/pSTAT1)
Experimental: (§1) Compound inhibition of JAK1 and JAK2 activities was measured in human whole blood: inhibition of IL-6-induced STAT1 phosphorylation (CD4+ T cells) and GM-CSF-induced STAT5 phosphorylation (CD33+ cells) in human whole blood were respectively analysized. The experimental procedures are shown as follows:
(§2) 1) Human whole blood was collected into heparinized tubes, and seeded in a 96-well plate at 100 µL/well, and incubated in a cell incubator for 15 minutes.
(§3) 2) Different concentrations of compounds (25 μL/well) were added into desired wells and incubated at 37° C. under 5% CO2 for 30 minutes. The final concentration of DMSO was 0.2%.
(§4) 3) Blood cells were stimulated with recombinant human IL-6 (100 ng/mL) or recombinant human GM-CSF (20 ng/mL) or PBS at 37° C. and 5% CO2 for 20 minutes.
(§5) 4) The blood was treated with pre-warmed 1× Lysis/Fixing Buffer (BD Phosflow) at 37° C. for 10 minutes to lyse erythrocytes and fix leukocytes.
(§6) 5) After the cells were permeabilized with pre-cooled buffer (Perm buffer III) on ice for 60 minutes, anti-pSTAT1 and anti-CD4 antibodies (IL-6 stimulated samples) or anti-pSTAT5 and anti-CD33 antibodies (GM-CSF stimulated samples) were used to stain the samples at 4° C. for 60 minutes.
(§7) 7) The cells were washed twice and resuspended in buffer for FACS analysis (Thermo Attune NxT).

[2] = Mouse pharmacokinetics; assay type: in vivo; conditions: CD-1 mice, 5 mg/kg, P.O.
Experimental: Test compound was intravenously (IV) or orally (PO) administrated to CD-1 mice. Blood samples were collected at different time points as indicated below. The concentration of the compounds in the mouse plasma was determined by LC-MS/MS and related parameters were calculated. The details are as follows: the required amount of the test product was taken to prepare a solution of the required concentration for intravenous injection or oral administration. The age of the animals was about 6-8 weeks at the beginning of the dosing experiment. Blood sampling time points are 0.083 h, 0.25 h, 0.5 h, 1 h, 2 h, 4 h, 8 h and 24 h after compound administration. The Phoenix WinNonlin 7.0 software was used to calculate the pharmacokinetic parameters through the blood drug concentration data at different time points.

[3] = target: T1, JAK1; experiment: In vitro JAK1 kinase activity assay (HTRF kinEASE TK); assay type: biochemical; parameters: purchased Thermo Fisher; conditions: 1.1 μM ATP, 60 minutes, room temperature; read-out: IC50 JAK1 (enzyme activity assay)
Procedure, shortened: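 HTRF TK assay: 0.5 ng/μl JAK1, 1 μM biotinylated TK peptide, 1.1 μM ATP with MgCl2, MnCl2, DTT, 60 min at room temperature; compounds 10 μM to 0.04 nM, 1% DMSO. Overnight detection with SA-XL665 and TK-antibody; 665/620 ratio to % inhibition, IC50 by 4-parameter fit.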

[4] = target: T2, JAK2 (Homo sapiens, UniProt O60674); experiment: Cellular JAK2 activity assay: EPO-stimulated STAT5 phosphorylation in TF-1 cells; assay type: cell-based; parameters: endogenous in cells; host or cells: TF-1 cells (ATCC); conditions: EPO (10 U/mL), pSTAT5, read-out: IC50 Cell JAK2
T2 sequence (O60674 whole entry): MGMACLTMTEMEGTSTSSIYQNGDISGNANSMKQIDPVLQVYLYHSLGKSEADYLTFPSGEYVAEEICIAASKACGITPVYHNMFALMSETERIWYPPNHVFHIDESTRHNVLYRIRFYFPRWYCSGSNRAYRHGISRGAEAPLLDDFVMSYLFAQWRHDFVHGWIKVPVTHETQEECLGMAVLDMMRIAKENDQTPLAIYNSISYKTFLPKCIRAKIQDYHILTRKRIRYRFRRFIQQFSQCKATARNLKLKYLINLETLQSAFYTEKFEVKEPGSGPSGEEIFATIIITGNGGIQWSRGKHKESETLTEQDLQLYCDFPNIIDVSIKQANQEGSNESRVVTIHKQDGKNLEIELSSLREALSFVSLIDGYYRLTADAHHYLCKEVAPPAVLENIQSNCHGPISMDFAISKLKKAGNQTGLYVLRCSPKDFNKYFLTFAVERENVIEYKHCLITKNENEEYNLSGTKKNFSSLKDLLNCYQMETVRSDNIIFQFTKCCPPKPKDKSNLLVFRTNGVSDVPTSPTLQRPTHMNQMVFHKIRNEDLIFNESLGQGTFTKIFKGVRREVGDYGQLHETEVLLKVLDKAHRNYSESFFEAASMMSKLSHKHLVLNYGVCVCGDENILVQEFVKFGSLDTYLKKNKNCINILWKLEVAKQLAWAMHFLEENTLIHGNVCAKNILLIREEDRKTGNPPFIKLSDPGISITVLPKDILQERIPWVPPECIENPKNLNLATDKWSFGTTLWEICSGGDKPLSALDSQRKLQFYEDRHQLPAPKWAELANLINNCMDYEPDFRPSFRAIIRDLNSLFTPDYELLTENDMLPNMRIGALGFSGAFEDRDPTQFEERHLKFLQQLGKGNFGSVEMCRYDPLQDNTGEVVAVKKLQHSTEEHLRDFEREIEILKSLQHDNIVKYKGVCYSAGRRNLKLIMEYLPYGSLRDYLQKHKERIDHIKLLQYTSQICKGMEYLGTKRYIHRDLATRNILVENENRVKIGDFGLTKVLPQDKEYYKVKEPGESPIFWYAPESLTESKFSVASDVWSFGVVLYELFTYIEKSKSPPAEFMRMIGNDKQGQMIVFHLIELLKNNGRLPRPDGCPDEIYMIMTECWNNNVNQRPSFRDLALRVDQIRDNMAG

[5] = target: T2, JAK2; experiment: Human whole blood JAK2 activity assay: GM-CSF-induced STAT5 phosphorylation (CD33+ cells); assay type: cell-based; parameters: endogenous in cells; conditions: GM-CSF (20 ng/mL), read-out: IC50_JAK2 (GM-CSF/pSTAT5)
Experimental: as §1, §2, §3, §4, §5, §6, §7

T1 sequence (P23458 whole entry): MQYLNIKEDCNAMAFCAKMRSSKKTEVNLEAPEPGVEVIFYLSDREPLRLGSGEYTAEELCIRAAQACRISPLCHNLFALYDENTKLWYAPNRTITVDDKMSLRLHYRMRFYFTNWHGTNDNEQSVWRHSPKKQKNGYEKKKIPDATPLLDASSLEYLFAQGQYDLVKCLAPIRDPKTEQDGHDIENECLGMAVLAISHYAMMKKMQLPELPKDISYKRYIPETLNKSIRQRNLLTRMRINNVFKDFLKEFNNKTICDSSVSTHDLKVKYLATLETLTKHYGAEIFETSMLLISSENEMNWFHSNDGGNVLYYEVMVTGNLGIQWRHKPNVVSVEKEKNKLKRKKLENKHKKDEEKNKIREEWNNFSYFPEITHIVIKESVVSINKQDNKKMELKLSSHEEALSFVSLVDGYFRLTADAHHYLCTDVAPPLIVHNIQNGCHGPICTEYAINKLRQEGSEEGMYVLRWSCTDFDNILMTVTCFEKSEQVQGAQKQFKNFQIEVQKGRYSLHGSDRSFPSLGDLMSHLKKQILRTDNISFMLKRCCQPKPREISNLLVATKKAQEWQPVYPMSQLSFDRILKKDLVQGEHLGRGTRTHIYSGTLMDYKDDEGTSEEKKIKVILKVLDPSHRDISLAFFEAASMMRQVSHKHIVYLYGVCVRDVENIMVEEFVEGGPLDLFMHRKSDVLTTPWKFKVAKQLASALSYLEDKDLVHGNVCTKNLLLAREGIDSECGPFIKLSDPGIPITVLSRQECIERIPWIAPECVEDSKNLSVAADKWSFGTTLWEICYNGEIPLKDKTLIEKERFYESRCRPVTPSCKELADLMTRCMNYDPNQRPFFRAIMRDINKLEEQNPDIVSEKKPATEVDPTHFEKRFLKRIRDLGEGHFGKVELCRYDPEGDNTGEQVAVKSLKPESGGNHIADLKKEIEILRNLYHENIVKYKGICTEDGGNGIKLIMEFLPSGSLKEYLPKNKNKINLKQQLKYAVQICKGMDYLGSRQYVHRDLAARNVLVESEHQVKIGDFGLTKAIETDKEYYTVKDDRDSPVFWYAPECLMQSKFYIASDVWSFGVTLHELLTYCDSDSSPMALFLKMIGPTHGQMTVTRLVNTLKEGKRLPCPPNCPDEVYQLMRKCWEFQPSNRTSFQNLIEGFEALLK

CC[C@H](C(=O)Nc1nccc2c(-c3nc(Nc4cn(C)nc4OC)ncc3C)c[nH]c12)N1CCN(C)CC1 [Example 4, (R)—N-(3-(2-((3-Methoxy-1-methyl-1H-pyrazol-4-yl)amino)-5-methylpyrimidin-4-yl)-1H-pyrrolo[2,3-c]pyridin-7-yl)-2-(4-methylpiperazin-1-yl)butanamide]
IC50 [1]: < 0.5 µM
F [2]: 106%
Cmax ([2]; mouse, po, plasma): 1060 ng/mL
half-life ([2]; mouse, po, plasma): 3.79 h
AUC(0-t) ([2]; mouse, po, plasma, read-out: AUC0-24 hr): 10200 ng·h/mL
IC50 [3]: < 0.005 µM
IC50 [4]: < 10 µM
IC50 [5]: > 20 µM
